Test results taken from article PMC6979384, “Characterization of the plant homeodomain (PHD) reader family for their histone tail interactions” (Epigenetics & Chromatin, 2020).

Key:
Test in all cases: Histone peptide microarray
Type in all cases: binding, human
KDM4C (TTP) = conditions: KDM4C (TTP)
How it was run: (§1)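 Mean ± SD of 4 replicate array intensities; GST-PHD finger at 0.5 μM against 293 PTM-bearing histone peptides.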

PHF8 = test system: PHF8
How it was run: as §1

ING1 = test system: ING1
How it was run: as §1

DIDO1 = test system: DIDO1
How it was run: as §1

MORC3 (CW) = conditions: MORC3 (CW)
How it was run: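 GST-tagged PHD readers, 0.5 μM, probed on a microarray of 293 synthetic histone peptides carrying single or combinatorial PTMs (optimized Petell protocol). Signals are averaged over 4 replicates and expressed as relative binding.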

PHF13 = test system: PHF13
How it was run: as §1

KDM5B (3) = conditions: KDM5B (3)
How it was run: as §1

AIRE (PP) = conditions: AIRE (PP)
How it was run: as §1

ING3 = test system: ING3
How it was run: as §1

PHF21A = conditions: PHF21A
How it was run: as §1

RAG2 = test system: RAG2
How it was run: as §1

KDM5A (1) = conditions: KDM5A (1)
How it was run: as §1

KDM5B (1) = conditions: KDM5B (1)
How it was run: as §1

ING4 = test system: ING4
How it was run: as §1

PHF2 = test system: PHF2
How it was run: as §1

BPTF (PB) = conditions: BPTF (PB)
How it was run: as §1

KDM5A (3) = conditions: KDM5A (3)
How it was run: as §1

BAZ2B = conditions: BAZ2B
How it was run: as §1

PHRF1 (RP) = conditions: PHRF1 (RP)
How it was run: as §1

PHF23 = test system: PHF23
How it was run: as §1

TRIM66 (PB) = conditions: TRIM66 (PB)
How it was run: as §1

ING2 = test system: ING2
How it was run: as §1

MLL5 = test system: MLL5
How it was run: as §1

CHD5 (PPCC) = conditions: CHD5 (PPCC)
How it was run: as §1

SP140L = conditions: SP140L
How it was run: as §1

ING5 = test system: ING5
How it was run: as §1

TAF3 = test system: TAF3
How it was run: as §1

KDM7A = conditions: KDM7A
How it was run: as §1

DPF2 (PPC2W2) = conditions: DPF2 (PPC2W2)
How it was run: as §1

CHD5 (PCC) = conditions: CHD5 (PCC)
How it was run: as §1

CHD4 (PPCC) = conditions: CHD4 (PPCC)
How it was run: as §1

[1] = GST-tagged, arrays performed twice, n of 4
[2] = sheet "Array Heatmap", each array performed twice, total n = 4

H4K20ac: H4 1-23 [Peptide H4K20ac]
Array Heatmap value (peptide array binding signal) (KDM4C (TTP); [1]): 0.4301 | Array Heatmap value (peptide array binding signal) (PHF8; PHF8, GST-tagged, arrays performed twice, n of 4): 0.3218 | Array Heatmap value (peptide array binding signal) (ING1; ING1, GST-tagged, arrays performed twice, n of 4): 0.4651 | Array Heatmap value (peptide array binding signal) (DIDO1; DIDO1, GST-tagged, arrays performed twice, n of 4): 0.5747 | Array Heatmap value (peptide array binding signal) (MORC3 (CW); [1]): 0.3311 | Array Heatmap value (peptide array binding signal) (PHF13; PHF13, GST-tagged, arrays performed twice, n of 4): 0.5544 | Array Heatmap value (peptide array binding signal) (KDM5B (3); [1]): 0.5071 | Array Heatmap value (peptide array binding signal) (AIRE (PP); [1]): 0.423 | Array Heatmap value (peptide array binding signal) (ING3; ING3, GST-tagged, arrays performed twice, n of 4): 0.4032 | Array Heatmap value (peptide array binding signal) (PHF21A; [1]): 0.3977 | Array Heatmap value (peptide array binding signal) (RAG2; RAG2, GST-tagged, arrays performed twice, n of 4): 0.2177 | Array Heatmap value (peptide array binding signal) (KDM5A (1); [1]): 0.4202 | Array Heatmap value (peptide array binding signal) (KDM5B (1); [1]): 0.6134 | Array Heatmap value (peptide array binding signal) (ING4; ING4, GST-tagged, arrays performed twice, n of 4): 0.4009 | Array Heatmap value (peptide array binding signal) (PHF2; PHF2, GST-tagged, arrays performed twice, n of 4): 0.4522 | Array Heatmap value (peptide array binding signal) (BPTF (PB); [1]): 0.3137 | Array Heatmap value (peptide array binding signal) (KDM5A (3); [1]): 0.374 | Array Heatmap value (peptide array binding signal) (BAZ2B; [1]): 0.4009 | Array Heatmap value (peptide array binding signal) (PHRF1 (RP); [1]): 0.3806 | Array Heatmap value (peptide array binding signal) (PHF23; PHF23, GST-tagged, arrays performed twice, n of 4): 0.4966 | Array Heatmap value (peptide array binding signal) (TRIM66 (PB); [1]): 0.5321 | Array Heatmap value (peptide array binding signal) (ING2; ING2, GST-tagged, arrays performed twice, n of 4): 0.5829 | Array Heatmap value (peptide array binding signal) (MLL5; MLL5, GST-tagged, arrays performed twice, n of 4): 0.5228 | Array Heatmap value (peptide array binding signal) (CHD5 (PPCC); [1]): 0.4774 | Array Heatmap value (peptide array binding signal) (SP140L; [1]): 0.3288 | Array Heatmap value (peptide array binding signal) (ING5; ING5, GST-tagged, arrays performed twice, n of 4): 0.3047 | Array Heatmap value (peptide array binding signal) (TAF3; TAF3, GST-tagged, arrays performed twice, n of 4): 0.2578 | Array Heatmap value (peptide array binding signal) (KDM7A; [1]): 0.3276 | Array Heatmap value (peptide array binding signal) (DPF2 (PPC2W2); [1]): 0.5691 | Array Heatmap value (peptide array binding signal) (CHD5 (PCC); [1]): 0.7369 | Array Heatmap value (peptide array binding signal) (CHD4 (PPCC); [1]): 0.5173

H4K20me3 (1-23): H4 1-23
Array Heatmap value (peptide array signal) (KDM4C (TTP); [2]): 0.4703 | Array Heatmap value (peptide array signal) (PHF8; PHF8, sheet "Array Heatmap", each array performed twice, total n = 4): 0.3429 | Array Heatmap value (peptide array signal) (ING1; ING1, sheet "Array Heatmap", each array performed twice, total n = 4): 0.5131 | Array Heatmap value (peptide array signal) (DIDO1; DIDO1, sheet "Array Heatmap", each array performed twice, total n = 4): 0.6567 | Array Heatmap value (peptide array signal) (MORC3 (CW); [2]): 0.3692 | Array Heatmap value (peptide array signal) (PHF13; PHF13, sheet "Array Heatmap", each array performed twice, total n = 4): 0.5943 | Array Heatmap value (peptide array signal) (KDM5B (3); [2]): 0.4599 | Array Heatmap value (peptide array signal) (AIRE (PP); [2]): 0.4048 | Array Heatmap value (peptide array signal) (ING3; ING3, sheet "Array Heatmap", each array performed twice, total n = 4): 0.465 | Array Heatmap value (peptide array signal) (PHF21A; [2]): 0.4514 | Array Heatmap value (peptide array signal) (RAG2; RAG2, sheet "Array Heatmap", each array performed twice, total n = 4): 0.2424 | Array Heatmap value (peptide array signal) (KDM5A (1); [2]): 0.4224 | Array Heatmap value (peptide array signal) (KDM5B (1); [2]): 0.6332 | Array Heatmap value (peptide array signal) (ING4; ING4, sheet "Array Heatmap", each array performed twice, total n = 4): 0.4304 | Array Heatmap value (peptide array signal) (PHF2; PHF2, sheet "Array Heatmap", each array performed twice, total n = 4): 0.4783 | Array Heatmap value (peptide array signal) (BPTF (PB); [2]): 0.3468 | Array Heatmap value (peptide array signal) (KDM5A (3); [2]): 0.4449 | Array Heatmap value (peptide array signal) (BAZ2B; [2]): 0.4188 | Array Heatmap value (peptide array signal) (PHRF1 (RP); [2]): 0.4228 | Array Heatmap value (peptide array signal) (PHF23; PHF23, sheet "Array Heatmap", each array performed twice, total n = 4): 0.5181 | Array Heatmap value (peptide array signal) (TRIM66 (PB); [2]): 0.5898 | Array Heatmap value (peptide array signal) (ING2; ING2, sheet "Array Heatmap", each array performed twice, total n = 4): 0.5794 | Array Heatmap value (peptide array signal) (MLL5; MLL5, sheet "Array Heatmap", each array performed twice, total n = 4): 0.5073 | Array Heatmap value (peptide array signal) (CHD5 (PPCC); [2]): 0.5147 | Array Heatmap value (peptide array signal) (SP140L; [2]): 0.3602 | Array Heatmap value (peptide array signal) (ING5; ING5, sheet "Array Heatmap", each array performed twice, total n = 4): 0.3228 | Array Heatmap value (peptide array signal) (TAF3; TAF3, sheet "Array Heatmap", each array performed twice, total n = 4): 0.2546 | Array Heatmap value (peptide array signal) (KDM7A; [2]): 0.329 | Array Heatmap value (peptide array signal) (DPF2 (PPC2W2); [2]): 0.6148 | Array Heatmap value (peptide array signal) (CHD5 (PCC); [2]): 0.7553 | Array Heatmap value (peptide array signal) (CHD4 (PPCC); [2]): 0.5546
